Drawing on a melting point compilation (Tetko et al.; mined from patent text by program, amines drawn as free bases though some values may be those of a salt), this text covers melting point for 25 compounds.

The term melting point denotes the temperature, or range, at which the solid turns liquid.

`COc1cc(C(C)=O)ccc1OCCCCCCl` displayed a melting point of 57 to 58 °C.

In turn, `Cc1ccc(-c2c(-c3ccncc3)nc(-c3c(Cl)cccc3Cl)n2C)cc1` came in with a melting point of 214 to 217 °C.

Regarding `CCCSc1ccc(-c2coc3ccc(-c4nnc(C)o4)cc23)cc1`, the melting point is 101 to 102 °C.

Compound `O=C(O)CCCCCCCn1ncc(-c2ccccc2)c1-c1ccccc1` came in with a melting point of 94 to 95 °C.

On to `CCCOCC1CC2CCC13CN(CCC)CCC31c3cccc(O)c3OC21` (stereo not given), for which the melting point is 123 to 124 °C.

The compound `CCCn1c(=O)c2c(nc(/C=C/c3ccccc3)n2C)n(CCC)c1=O` yielded a melting point of 163 °C.

On to `Cc1cc(CCC2CCC(COc3ccc(C4=NCCO4)cc3)CC2)on1` (stereo not given), for which the melting point was 48 to 50 °C.

In turn, `N#Cc1cnn2c1NCCC2c1cccc(F)c1` (stereo not given) registered a melting point of 146 to 148 °C.

Compound `C=CC(=O)Oc1ccc(-c2cccc(-c3ccc(OC(=O)C=C)cc3)c2)cc1` displayed a melting point of 106 °C.

Turning to `CC(C)(C)OC(=O)CN1C(=O)c2ccccc2S1(=O)=O`, the melting point fell in the range of 130 to 132 °C.

With `COc1cc(C(=O)NS(=O)(=O)c2ccccc2C)ccc1CN1CCOc2ccc(NC(=O)CC3CCCC3)cc21`, the melting point fell in the range of 207 to 208 °C.

`CC(=CCc1c(O)c(C)c2c(c1OS(=O)(=O)c1ccc(C)cc1)C(=O)OC2)CCC(=O)O` showed a melting point of 148 to 149 °C.

Turning to `COc1ccc(C2=NN(Cn3nnc4ccccc43)C(=O)[C@H]3CCCC[C@@H]23)cc1OC` (relative stereo), the melting point lay in the range of 173 to 178 °C.

In turn, `CCOC(=O)C1=C(Nc2ccccc2)CN(C(=O)c2ccccc2)C1` came in with a melting point of 149 to 151 °C.

As to `O=C(c1ccc(-c2ccc(Cl)cc2)cc1)C(O)O`, the melting point lay within 275 to 285 °C.

For the compound `Cc1nc(Br)sc1C(=O)NCc1ccccc1`, the melting point fell in the range of 92 to 94 °C.

Take `Cc1nn(CCOc2ccc(C=C3SC(=O)NC3=O)cc2)c(=O)c2ccccc12`: the melting point was determined as 202 °C.

Compound `COc1cc(C(=O)NCC(=O)O)ccc1NS(=O)(=O)c1sc2ccc(Cl)cc2c1C` returned a melting point of 282 to 285 °C.

For the compound `CCC(=O)NCCC1CCc2cc(F)c3c(c21)C=CCO3` (stereo not given), the melting point lay within 106 to 108 °C.

Regarding `Cc1nnsc1C(=O)Nc1ccc(-n2nc(C3CC3)c(Cl)c2C2CC2)c(F)c1`, the melting point was 153 to 156 °C.

Compound `Cc1nc(N2CCc3ccccc3CC2)c(C#N)c(=O)n1CC(F)(F)F` had a melting point of 108 to 110 °C.

Regarding `CCn1c2ccccc2c2cc(-n3c(CC(=O)O)c(C(=O)O)c4cc(Oc5ccc(C(F)(F)F)cc5)ccc43)ccc21`, the melting point was in the range of 243 to 245 °C.

Compound `CCOc1cc2ncc(Nc3cccc(F)c3)nc2cc1OCC` returned a melting point of 193 °C.

`COc1ccc(-n2nc(Cl)cc2-c2ccc(OCCNS(C)(=O)=O)cc2)cc1` registered a melting point of 117 to 119 °C.

The compound `CC(c1ccc2ncccc2c1)n1nnc2ccc(-c3cnn(CCO)c3)nc21` (stereo not given) showed a melting point of 188 to 191 °C.
